Data from PubChem BioAssay (NCI).
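Test compounds were applied to cells in 96-well plates for 48 hours at 5 doses. GI50 = concentration required for 50% inhibition of growth. TGI is the concentration that stops growth completely.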

Assays:
Test in all cases: growth of human tumour cells (NCI), 48 h
SF-295 CNS = test system: SF-295 CNS
HCC-2998 colon = test system: HCC-2998 colon
MCF7 breast = test system: MCF7 breast
HCT-15 colon = test system: HCT-15 colon
NCI/ADR-RES ovarian = test system: NCI/ADR-RES ovarian
CAKI-1 renal = test system: CAKI-1 renal
CCRF-CEM leukemia = test system: CCRF-CEM leukemia
SF-268 CNS = test system: SF-268 CNS
OVCAR-8 ovarian = test system: OVCAR-8 ovarian
NCI-H460 lung = test system: NCI-H460 lung
OVCAR-5 ovarian = test system: OVCAR-5 ovarian
786-0 renal = test system: 786-0 renal
UO-31 renal = test system: UO-31 renal
MDA-MB-231 breast = test system: MDA-MB-231 breast
SK-MEL-2 melanoma = test system: SK-MEL-2 melanoma
A549 NSCLC = test system: A549 NSCLC
BT-549 breast = test system: BT-549 breast
M14 melanoma = test system: M14 melanoma
HL-60(TB) leukemia = test system: HL-60(TB) leukemia
HCT-116 colon = test system: HCT-116 colon
SW-620 colon = test system: SW-620 colon
KM12 colon = test system: KM12 colon
SK-MEL-28 melanoma = test system: SK-MEL-28 melanoma
UACC-62 melanoma = test system: UACC-62 melanoma
NCI-H522 lung = test system: NCI-H522 lung
SK-MEL-5 melanoma = test system: SK-MEL-5 melanoma
MOLT-4 leukemia = test system: MOLT-4 leukemia
RPMI-8226 leukemia = test system: RPMI-8226 leukemia
COLO 205 colon = test system: COLO 205 colon

O=C(Nc1ccc(OCc2ccccc2)cc1)Nc1ccc(Cl)c(C(F)(F)F)c1
GI50 (SF-295 CNS): 1.76 µM | TGI (SF-295 CNS): 5.44 µM | GI50 (HCC-2998 colon): 2.19 µM | TGI (HCC-2998 colon): 29.8 µM | GI50 (MCF7 breast): 1.81 µM | TGI (MCF7 breast): 6.77 µM | GI50 (HCT-15 colon): 2 µM | TGI (HCT-15 colon): 14 µM | GI50 (NCI/ADR-RES ovarian): 1.94 µM | TGI (NCI/ADR-RES ovarian): 7.23 µM | GI50 (CAKI-1 renal): 1.61 µM | TGI (CAKI-1 renal): 5.46 µM | GI50 (CCRF-CEM leukemia): 1.69 µM | TGI (CCRF-CEM leukemia): 5.2 µM | GI50 (SF-268 CNS): 2.28 µM | TGI (SF-268 CNS): > 64.3 µM | GI50 (OVCAR-8 ovarian): 2.1 µM | TGI (OVCAR-8 ovarian): 41.3 µM | GI50 (NCI-H460 lung): 1.69 µM | TGI (NCI-H460 lung): 5.61 µM | GI50 (OVCAR-5 ovarian): 3.25 µM | TGI (OVCAR-5 ovarian): 58.3 µM | GI50 (786-0 renal): 2.09 µM | TGI (786-0 renal): 9.89 µM | GI50 (UO-31 renal): 1.6 µM | TGI (UO-31 renal): 5.31 µM | GI50 (MDA-MB-231 breast): 2.58 µM | TGI (MDA-MB-231 breast): 11.1 µM | GI50 (SK-MEL-2 melanoma): 1.51 µM | TGI (SK-MEL-2 melanoma): 3.65 µM | GI50 (A549 NSCLC): 1.83 µM | TGI (A549 NSCLC): 15.2 µM | GI50 (BT-549 breast): 1.62 µM | TGI (BT-549 breast): 4.68 µM | GI50 (M14 melanoma): 2.17 µM | TGI (M14 melanoma): > 64.3 µM | GI50 (HL-60(TB) leukemia): 1.54 µM | TGI (HL-60(TB) leukemia): 7.77 µM | GI50 (HCT-116 colon): 1.9 µM | TGI (HCT-116 colon): 11.5 µM | GI50 (SW-620 colon): 2 µM | TGI (SW-620 colon): 11.2 µM | GI50 (KM12 colon): 2.1 µM | TGI (KM12 colon): 12 µM | GI50 (SK-MEL-28 melanoma): 2.02 µM | TGI (SK-MEL-28 melanoma): > 64.3 µM | GI50 (UACC-62 melanoma): 1.82 µM | TGI (UACC-62 melanoma): 11 µM | GI50 (NCI-H522 lung): 1.29 µM | TGI (NCI-H522 lung): 3.52 µM | GI50 (SK-MEL-5 melanoma): 2.14 µM | TGI (SK-MEL-5 melanoma): 8.25 µM | GI50 (MOLT-4 leukemia): 2.5 µM | TGI (MOLT-4 leukemia): 18.1 µM | GI50 (RPMI-8226 leukemia): 1.69 µM | TGI (RPMI-8226 leukemia): 7.56 µM | GI50 (COLO 205 colon): 1.67 µM | TGI (COLO 205 colon): 4.25 µM
